Data: paper PMC4819222, “CD300c is uniquely expressed on CD56^bright Natural Killer Cells and differs from CD300a upon ligand recognition” (Scientific Reports, 2016)

How the values were obtained:
CD300c-Ig = biological target: T1, CD300c-Ig (Homo sapiens, UniProt Q08708); assay: ELISA on plates coated with pure lipid; SPR on L1-chip liposomes (Biacore T200); type: binding; settings: immobilised lipid; Fc fusion protein as analyte
T1 construct: extracellular domain fused to Fc fragment of human IgG2 (Fc as tag)
T1 sequence (Q08708 21-183 limits assumed): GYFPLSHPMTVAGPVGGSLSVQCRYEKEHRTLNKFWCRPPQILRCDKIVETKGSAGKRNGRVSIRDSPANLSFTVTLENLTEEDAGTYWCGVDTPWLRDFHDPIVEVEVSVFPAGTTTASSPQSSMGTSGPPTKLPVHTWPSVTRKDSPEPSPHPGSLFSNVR

CD300a-Ig = biological target: T2, CD300a-Ig (Homo sapiens, UniProt Q9UGN4); assay: as above; type: binding; settings: immobilised lipid; Fc fusion protein as analyte
T2 construct: Ig (Fc) fusion protein, Fc as tag
T2 sequence (Q9UGN4 18-180 limits assumed): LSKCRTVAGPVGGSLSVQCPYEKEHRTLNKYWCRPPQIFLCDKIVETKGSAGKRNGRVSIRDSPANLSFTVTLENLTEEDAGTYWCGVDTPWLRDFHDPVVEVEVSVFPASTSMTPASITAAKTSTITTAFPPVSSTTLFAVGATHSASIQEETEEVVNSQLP

CCCCCCCC/C=C\CCCCCCCC(=O)O[C@H](COC(=O)CCCCCCCCCCCCCCC)COP(=O)(O)OCCN [PE, 1-palmitoyl-2-oleoyl (PO) phosphatidylethanolamine (POPE)]
ELISA on plates coated with pure lipid; SPR on L1-chip liposomes (Biacore T200) (CD300c-Ig): CD300c-Ig binds to both PS and PE at the same level | ELISA on plates coated with pure lipid; SPR on L1-chip liposomes (Biacore T200) (CD300a-Ig): CD300a-Ig predominantly binds to PE
